Reference: patent US9868737B2, “Pyridino[1,2-A]pyrimidone analogue used as MTOR/P13K inhibitor” (CISEN PHARMACEUTICAL CO., LTD., priority 2014, dated 2018)
Read-outs that look alike come from different tables or passages of the source.

How the values were obtained:
PI3K (p110α) kinase = target: T1, PI3K (p110α) kinase (Homo sapiens, UniProt P42336); assay: PI3K (p110α) kinase assay (PI3K HTRF Assay); type: biochemical; settings: in vitro enzyme activity assay, 10 μM PIP2, read-out: PI3K (p110α) enzyme activity_IC50
T1 construct: made in house
Source text: Conclusion: The compounds of the present invention have significant inhibitory effect on mTOR/PI3K. Example In Vitro Enzyme Activity Assay 1. The experimental procedures and methods of PI3K (p110α) kinase assay: 1) Experimental Objective
The objective was to evaluate the inhibitory effect of the subject samples on PI3K (p110α) kinase activity at molecular level.
PerkinElmer Envision 2104 Multilabel Reader.
PI 3-Kinase HTRF Assay (384 wells) was purchased from Upstate (Millipore) company: PI3K (p110α) kinase was made in our lab.
c) Experimental procedures
Each solution was prepared according to the instructions provided in the Kinase PI 3-Kinase HTRF Assay. The kinase reaction was carried out in white 384-well plates (Proxiplate-384 plus), 0.5 μl of DMSO (the concentration was consistent with the highest concentration of DMSO for the test compounds) was added to each of the two control wells with and without enzyme, and then 0.5 μl of a series of different concentrations of the test compounds was added to each well to be tested. The kinase reaction liquid (10 μM substrate PIP2, 0.5 ng PI3K (p110α)) was added to the control well containing enzyme and the test wells, while only working reaction liquid (10 μM substrate PIP2) was added to the control well without enzyme, and finally, 5 μM ATP working reaction liquid was added to activate the reaction. After the reaction was carried out at room temperature for 30 min, the stop solution was added to each well to terminate the kinase reaction. After the mixture was fully mixed, the detection liquid was added to each well and fully mixed. The plate was sealed with Parafilm and placed in the dark. After incubated overnight, the mixture was detected.
The IC50 value was calculated through the GraphPad software after plotting the relative inhibitory rate versus concentration.

MCF-7 cells = assay: In vitro test of cell activity (MCF-7 cells, insulin stimulation, ELISA-One fluorescence); type: cell-based; settings: Homo sapiens, MCF7, MCF-7 cells; for inhibition at 0.25 µM: conc. 0.25 μM; for inhibition at 0.5 µM: conc. 0.5 μM
In short: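 MCF-7 cells, seeded at 2.5×10^4/well in 10% FBS medium, were given compound in serum-free medium for 2 h at one concentration (screen) or a series (IC50). Insulin stimulation followed at […] final for 30 min; lysates assayed by ELISA-One sandwich immunoassay with fluorescence read-out.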

T1 sequence (P42336 whole entry): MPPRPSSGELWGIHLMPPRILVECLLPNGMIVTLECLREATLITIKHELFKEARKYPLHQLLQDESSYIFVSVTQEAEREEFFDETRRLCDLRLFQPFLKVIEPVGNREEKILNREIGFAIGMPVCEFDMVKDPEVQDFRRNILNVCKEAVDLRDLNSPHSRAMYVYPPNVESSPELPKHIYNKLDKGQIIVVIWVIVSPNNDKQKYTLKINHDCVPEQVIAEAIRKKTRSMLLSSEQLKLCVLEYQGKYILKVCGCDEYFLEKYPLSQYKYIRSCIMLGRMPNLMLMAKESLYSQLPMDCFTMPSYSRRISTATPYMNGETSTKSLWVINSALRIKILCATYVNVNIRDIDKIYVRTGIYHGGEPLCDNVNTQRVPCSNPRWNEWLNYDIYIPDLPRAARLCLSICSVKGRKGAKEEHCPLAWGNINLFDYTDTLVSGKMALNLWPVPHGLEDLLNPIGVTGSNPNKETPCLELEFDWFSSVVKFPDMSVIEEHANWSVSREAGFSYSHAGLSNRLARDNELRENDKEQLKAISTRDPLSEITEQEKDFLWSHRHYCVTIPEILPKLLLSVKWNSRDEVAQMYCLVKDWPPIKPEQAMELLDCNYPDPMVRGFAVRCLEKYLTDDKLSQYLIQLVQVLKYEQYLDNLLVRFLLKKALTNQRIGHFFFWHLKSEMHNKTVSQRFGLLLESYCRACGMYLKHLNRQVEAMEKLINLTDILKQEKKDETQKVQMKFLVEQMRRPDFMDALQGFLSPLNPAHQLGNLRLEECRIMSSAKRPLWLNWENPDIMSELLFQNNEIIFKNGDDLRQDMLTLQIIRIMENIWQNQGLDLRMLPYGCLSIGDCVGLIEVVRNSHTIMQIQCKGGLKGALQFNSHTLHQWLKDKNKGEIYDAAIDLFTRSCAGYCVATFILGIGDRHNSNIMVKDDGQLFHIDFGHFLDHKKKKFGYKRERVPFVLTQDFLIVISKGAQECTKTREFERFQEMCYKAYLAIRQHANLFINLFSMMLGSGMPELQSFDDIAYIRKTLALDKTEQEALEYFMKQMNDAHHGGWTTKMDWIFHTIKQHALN

## COCCOc1cnc2ccc(-c3cnc(OC)c(NS(=O)(=O)n4nc(C)cc4C)c3)cn2c1=O [compound 283]
PI3K (p110α) kinase
  IC50: 0.001 to 0.01 µM

## COCCOc1cnc2ccc(-c3cnc(OC)c(NS(=O)(=O)c4ccccc4Cl)c3)cn2c1=O [compound 253]
PI3K (p110α) kinase
  IC50: ≤ 0.001 µM
MCF-7 cells; read-out: IC50 p-AKT
  IC50: ≤ 0.05 µM

## COCCOc1cnc2ccc(-c3cnc(OC)c(NS(=O)(=O)c4ccc(C)cc4Cl)c3)cn2c1=O [compound 275]
PI3K (p110α) kinase
  IC50: ≤ 0.001 µM
MCF-7 cells; read-out: IC50 p-AKT
  IC50: ≤ 0.05 µM

## COc1ncc(-c2ccc3ncc(OCCCF)c(=O)n3c2)cc1NS(=O)(=O)c1ccc(F)cc1Cl [compound 243]
PI3K (p110α) kinase
  IC50: ≤ 0.001 µM
MCF-7 cells; read-out: IC50 p-AKT
  IC50: ≤ 0.05 µM

## COCCOc1cnc2ccc(-c3cnc(OC)c(NS(=O)(=O)c4c(Cl)cccc4Cl)c3)cn2c1=O [compound 245]
PI3K (p110α) kinase
  IC50: ≤ 0.001 µM
MCF-7 cells; read-out: IC50 p-AKT
  IC50: ≤ 0.05 µM

## COCCOc1cnc2ccc(-c3cnc(OC)c(NS(=O)(=O)c4sc(C)nc4C)c3)cn2c1=O [compound 176]
MCF-7 cells; read-out: IC50 p-AKT
  IC50: ≤ 0.05 µM
MCF-7 cells; read-out: IC50 p-p70S6K
  IC50: ≤ 0.05 µM

## COc1ncc(-c2ccc3ncc(N)c(=O)n3c2)cc1NS(=O)(=O)c1sc(N)nc1C [compound 94]
MCF-7 cells; read-out: IC50 p-AKT
  IC50: ≤ 0.05 µM

## COc1ncc(-c2ccc3n[nH]c(=O)n3c2)cc1NS(=O)(=O)c1ccc(F)cc1F [compound 235]
MCF-7 cells; read-out: IC50 p-AKT
  IC50: 0.1 to 0.25 µM

## COc1ncc(-c2ccc3ncc(Cl)c(=O)n3c2)cc1NS(=O)(=O)c1ccc(C)cc1Cl [compound 152]
MCF-7 cells; read-out: % inhibition AKT
  inhibition at 0.25 µM: 94%
MCF-7 cells; read-out: % inhibition p70s6k
  inhibition at 0.25 µM: 83.9%
MCF-7 cells; read-out: IC50 p-AKT
  IC50: ≤ 0.05 µM
MCF-7 cells; read-out: IC50 p-p70S6K
  IC50: ≤ 0.05 µM

## COc1ncc(-c2ccc3ncc(OCC4CCOC4)c(=O)n3c2)cc1NS(=O)(=O)c1sc(C)nc1C (stereo not drawn) [compound 200]
MCF-7 cells; read-out: IC50 p-AKT
  IC50: ≤ 0.05 µM

## COc1ncc(-c2ccc3ncc(Cl)c(=O)n3c2)cc1NS(=O)(=O)c1sccc1C [compound 143]
MCF-7 cells; read-out: % inhibition AKT
  inhibition at 0.5 µM: 95.7%
MCF-7 cells; read-out: % inhibition p70s6k
  inhibition at 0.5 µM: 87.7%
MCF-7 cells; read-out: IC50 p-AKT
  IC50: ≤ 0.05 µM
MCF-7 cells; read-out: IC50 p-p70S6K
  IC50: ≤ 0.05 µM

## COc1ncc(-c2ccc3nccc(=O)n3c2C)cc1NS(=O)(=O)c1ccc(F)cc1C [compound 57]
MCF-7 cells; read-out: % inhibition AKT
  inhibition at 0.5 µM: 58.6%
MCF-7 cells; read-out: % inhibition p70s6k
  inhibition at 0.5 µM: 47.2%

## COc1ncc(-c2ccc3ncc(Cl)c(=O)n3c2)cc1NS(=O)(=O)c1c(C)noc1C [compound 166]
MCF-7 cells; read-out: % inhibition AKT
  inhibition at 0.25 µM: 66.5%
MCF-7 cells; read-out: % inhibition p70s6k
  inhibition at 0.25 µM: 89.2%
MCF-7 cells; read-out: IC50 p-AKT
  IC50: 0.1 to 0.25 µM
MCF-7 cells; read-out: IC50 p-p70S6K
  IC50: 0.1 to 0.25 µM

## COc1ncc(-c2ccc3ncc(N)c(=O)n3c2)cc1NS(=O)(=O)c1sccc1C [compound 92]
MCF-7 cells; read-out: IC50 p-AKT
  IC50: ≤ 0.05 µM

## COc1ncc(-c2ccc3ncc(Cl)c(=O)n3c2)cc1NS(=O)(=O)c1cccc(F)c1 [compound 138]
MCF-7 cells; read-out: % inhibition AKT
  inhibition at 0.5 µM: 68.9%
MCF-7 cells; read-out: % inhibition p70s6k
  inhibition at 0.5 µM: 73.8%

## COCCOc1cnc2ccc(-c3cnc(OC)c(NS(=O)(=O)c4ccccc4F)c3)cn2c1=O [compound 254]
MCF-7 cells; read-out: IC50 p-AKT
  IC50: 0.05 to 0.1 µM

## COc1ncc(-c2ccc3ncc(NC(C)=O)c(=O)n3c2)cc1NS(=O)(=O)c1ccc(F)cc1F [compound 97]
MCF-7 cells; read-out: IC50 p-AKT
  IC50: > 0.25 µM

## COc1ncc(-c2ccc3ncc(OCC4COC4)c(=O)n3c2)cc1NS(=O)(=O)c1sc(C)nc1C [compound 185]
MCF-7 cells; read-out: IC50 p-AKT
  IC50: ≤ 0.05 µM

## COc1ncc(-c2ccc3nccc(=O)n3n2)cc1NS(=O)(=O)c1ccccc1Cl [compound 74]
MCF-7 cells; read-out: % inhibition AKT
  inhibition at 0.5 µM: 74.1%
MCF-7 cells; read-out: % inhibition p70s6k
  inhibition at 0.5 µM: 26%

## COc1ncc(-c2cn3c(=O)ccnc3cn2)cc1NS(=O)(=O)c1cc(F)ccc1F [compound 41]
MCF-7 cells; read-out: % inhibition AKT
  inhibition at 0.5 µM: -10.1%
MCF-7 cells; read-out: % inhibition p70s6k
  inhibition at 0.5 µM: 0.1%

## COc1ncc(-c2cn3c(=O)ccnc3cc2C)cc1NS(=O)(=O)c1ccc(C#N)cc1 [compound 129]
MCF-7 cells; read-out: % inhibition AKT
  inhibition at 0.5 µM: -24.2%
MCF-7 cells; read-out: % inhibition p70s6k
  inhibition at 0.5 µM: 1.2%

## COc1ncc(-c2ccc3ncc(NS(C)(=O)=O)c(=O)n3c2)cc1NS(=O)(=O)c1ccc(F)cc1F [compound 98]
MCF-7 cells; read-out: IC50 p-AKT
  IC50: > 0.25 µM

## COc1ncc(-c2ccc3ncc(OCC4CCOCC4)c(=O)n3c2)cc1NS(=O)(=O)c1sc(C)nc1C [compound 198]
MCF-7 cells; read-out: IC50 p-AKT
  IC50: ≤ 0.05 µM
